# Test results from paper PMC3438292 (Journal of medicinal chemistry, 2010).
# Biological target: 5-HT2B receptors (Homo sapiens, UniProt P41595)
# Assay: 5-HT2B functional assays at the PDSP
# Format: cell-based
# Conditions: among the 9 5-HT2B ligands
# 5-HT2B receptors, sequence (P41595 whole entry): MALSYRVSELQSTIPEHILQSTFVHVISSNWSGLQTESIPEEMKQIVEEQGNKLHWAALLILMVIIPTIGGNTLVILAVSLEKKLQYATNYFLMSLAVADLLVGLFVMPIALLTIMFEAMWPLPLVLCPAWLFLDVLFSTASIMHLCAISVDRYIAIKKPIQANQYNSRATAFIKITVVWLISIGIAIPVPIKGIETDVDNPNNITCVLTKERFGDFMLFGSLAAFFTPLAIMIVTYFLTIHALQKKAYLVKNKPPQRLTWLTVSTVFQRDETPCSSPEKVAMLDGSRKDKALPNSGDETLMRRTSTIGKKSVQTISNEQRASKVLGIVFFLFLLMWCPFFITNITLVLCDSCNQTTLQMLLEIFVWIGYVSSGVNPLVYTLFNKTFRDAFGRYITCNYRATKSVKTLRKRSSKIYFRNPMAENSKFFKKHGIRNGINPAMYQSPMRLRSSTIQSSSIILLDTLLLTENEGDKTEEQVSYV
row,Structure (SMILES),agonist activity in 5-HT2B functional assays
1,"CC[C@@H](CO)NC(=O)[C@@H]1C=C2c3cccc4[nH]cc(c34)C[C@H]2N(C)C1 [Compound 7, methylergometrine]",strong agonist activity

# Tested on: 5-HT2B receptor
# Assay: not given
# Conditions: cited from earlier work
row,Structure (SMILES),activation of 5-HT2B receptors
1,CN1C[C@H](C(=O)N[C@]2(C)O[C@@]3(O)[C@@H]4CCCN4C(=O)[C@H](Cc4ccccc4)N3C2=O)C=C2c3cccc4[nH]cc(c34)C[C@H]21 [ergotamine],potently activate
2,CC(N)Cc1cccc(C(F)(F)F)c1 (stereo not drawn) [norfenfluramine],potently activate
3,CC[C@@H](CO)NC(=O)[C@@H]1C=C2c3cccc4[nH]cc(c34)C[C@H]2N(C)C1 [Methylergonovine],potently activate
4,CCNC(C)Cc1cccc(C(F)(F)F)c1 (stereo not drawn) [Fenfluramine],potently activate
5,CCCN1C[C@H](CSC)C[C@@H]2c3cccc4[nH]cc(c34)C[C@H]21 [Pergolide],potently activate
